According to patent US4820695A, “C-20-dihydro-deoxy-(cyclic amino)-derivatives of macrolide antibiotics” (priority 1987, dated 1989):
Values after ≈ are worked out from the molar mass of the structure shown. Read-outs that look alike come from different tables or passages of the source.

Tests used:
[1] = test system: Streptococcus Group D 2041; test: MIC, standard agar-dilution assay (Table IX); type: cell-based; details: GROUPD2041, read-out: MIC
[2] = test system: Streptococcus pneumoniae Park I; test: MIC, standard agar-dilution assay (Table IX); type: cell-based; details: Streptococcus pneumoniae Park I; agar-dilution; read-out: MIC
[3] = test system: Staphylococcus aureus S13E; test: MIC, standard agar-dilution assay (Table IX); type: cell-based; details: Staphylococcus aureus, S13E
Escherichia coli N10 = test: MIC, standard agar-dilution assay (Table IX); type: cell-based; details: read-out: MIC
[4] = test system: Staphylococcus epidermidis 222; test: MIC, standard agar-dilution assay (Table IX); type: cell-based; details: read-out: MIC
[5] = test system: Streptococcus pyogenes C203; test: MIC, standard agar-dilution assay (Table IX); type: cell-based; details: read-out: MIC
[6] = test system: Staphylococcus aureus X400; test: MIC, standard agar-dilution assay (Table IX); type: cell-based; details: Staphylococcus aureus X400, Methicillin-resistant strain, read-out: MIC
Klebsiella X26 = test: MIC, standard agar-dilution assay (Table IX); type: cell-based; details: read-out: MIC
Escherichia coli EC14 = test: MIC, standard agar-dilution assay (Table IX); type: cell-based; details: read-out: MIC
[7] = test system: Haemophilus influenzae C.L.; test: MIC, standard agar-dilution assay (Table IX); type: cell-based; details: Ampicillin-sensitive strain, read-out: MIC
[8] = test system: Streptococcus pyogenes C203; test: ED50 in mice experimentally infected with S. pyogenes C203 (Table XI); type: in vivo; details: Streptococcus pyogenes, doses given 1 and 4 hours postinfection, read-out: ED50
Procedure, shortened: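 Protective ED50 (mg/kg × 2) was determined as the dose sparing half the animals. Test compound was given twice, at 1 and 4 hours after experimental S. pyogenes C203 infection of mice.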

[9] = test system: Staphylococcus aureus V41; test: MIC, standard agar-dilution assay (Table IX); type: cell-based; details: Staphylococcus aureus V41, Penicillin-resistant strain, read-out: MIC
[10] = Titratable groups in 66% aqueous DMF (Tables XIV-XVI); type: physicochemical
Text: ^c Run in 66% aqueous DMF
^d Run in 66% aqueous DMF

Pasteurella multocida [11] = test: Pasteurella infection in one-day-old chicks, subcutaneous administration (Table XII); type: in vivo; details: Administered subcutaneously, 30 mg/kg × 2, 1 and 4 hours post-challenge
Procedure, shortened: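 Treatment was 30 mg/kg s.c., given twice (1 and 4 h after infection). The infection itself was induced in day-old chicks by s.c. injection of 0.1 ml of avian Pasteurella multocida culture (20-h tryptose broth, diluted 10^-4).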

Pasteurella multocida [12] = test: Pasteurella infection in one-day-old chicks, medicated drinking water (Table XIII); type: in vivo; details: Administered in the available drinking water at 2 g/gal
Procedure: Many of the C-20 modified derivatives of this invention have also shown in vivo antibacterial activity against infections induced by gram-negative bacteria. Tables XII and XIII summarize the results of tests in which illustrative compounds were evaluated against a Pasteurella infection in one-day-old chicks. The compounds were administered parenterally or orally after challenge of the chicks with Pasteurella multocida (0.1 ml of a 10^-4 dilution of a twenty-hour tryptose broth culture of an avian P. multocida given subcutaneously). In these tests, unless indicated otherwise, all non-medicated infected chicks died within 24 hours of Pasteurella challenge. In the tests summarized in Table XII, the compounds were administered by subcutaneous injection at a dosage of 30 mg/kg, 1 and 4 hours post-challenge of the chicks with P. multocida. In the tests summarized in Table XIII the compounds were administered in medicated drinking water (at a level of 2 g/gal) available from 4 to 20 hours prior to challenge of the chicks with P. multocida and during the 3 -day test period.
^a Administered in the available drinking water at a concentration of […]

[13] = test system: Haemophilus influenzae 76; test: MIC, standard agar-dilution assay (Table IX); type: cell-based; details: Haemophilus influenzae 76, Ampicillin-resistant strain, read-out: MIC
[14] = test system: Pasteurella hemolytica 22C; test: MIC, broth-dilution microtiter test (Table X); type: cell-based; details: read-out: MIC
Text: (§1) The MIC's in Table X were obtained using conventional broth-dilution microtiter tests.

[15] = test system: Mycoplasma gallisepticum 29C; test: MIC, broth-dilution microtiter test (Table X); type: cell-based; details: Mycoplasmoides gallisepticum, read-out: MIC
Text: as §1

Staphylococcus aureus = test: MIC, broth-dilution microtiter test (Table X); type: cell-based; details: read-out: MIC
Text: as §1

Mycoplasma hyorhinis 29E = test: MIC, broth-dilution microtiter test (Table X); type: cell-based; details: read-out: MIC
Text: as §1

Streptococcus sp. 19F = test: MIC, broth-dilution microtiter test (Table X); type: cell-based; details: read-out: MIC
Text: as §1

[16] = test system: Pasteurella multocida 17E; test: MIC, broth-dilution microtiter test (Table X); type: cell-based; details: Bovine isolate, read-out: MIC
Text: as §1

Mycoplasma synoviae 40A = test: MIC, broth-dilution microtiter test (Table X); type: cell-based; details: Mycoplasmopsis synoviae, read-out: MIC
Text: as §1

[17] = test system: Mycoplasma hyopneumoniae S5972; test: MIC, broth-dilution microtiter test (Table X); type: cell-based; details: Mesomycoplasma hyopneumoniae, read-out: MIC
Text: as §1

[18] = test system: Pasteurella multocida 60A; test: MIC, broth-dilution microtiter test (Table X); type: cell-based; details: Avian isolate, read-out: MIC
Text: as §1

Escherichia coli TEM = test: MIC, standard agar-dilution assay (Table IX); type: cell-based; details: read-out: MIC
[19] = test system: Streptococcus Group D X66; test: MIC, standard agar-dilution assay (Table IX); type: cell-based; details: read-out: MIC
Staphyloccus aureus X1.1 = test: MIC, standard agar-dilution assay (Table IX); type: cell-based, Staphylococcus aureus; details: Staphylococcus aureus, read-out: MIC
[20] = test system: Staphylococcus epidermidis EPI1; test: MIC, standard agar-dilution assay (Table IX); type: cell-based; details: Staphylococcus epidermidis EPI1; agar-dilution; read-out: MIC
[21] = Titratable groups (first value)

| Compound | MIC [1] [µg/mL] | MIC [2] [µg/mL] | MIC [3] [µg/mL] | MIC (Escherichia coli N10) [µg/mL] | MIC [4] [µg/mL] | MIC [5] [µg/mL] | MIC [6] [µg/mL] | MIC (Klebsiella X26) [µg/mL] | MIC (Escherichia coli EC14) [µg/mL] | MIC [7] [µg/mL] | MIC [9] [µg/mL] | pKa ([10]; Titratable groups) | pKa [10, 21] | Number of Deaths/Number Treated (Pasteurella multocida [11]) | Number of Deaths/Number Treated (Pasteurella multocida [12]) | MIC [13] [µg/mL] | MIC [14] [µg/mL] | MIC [15] [µg/mL] | MIC (Staphylococcus aureus) [µg/mL] | MIC (Mycoplasma hyorhinis 29E) [µg/mL] | further results |
| --- | --- | --- | --- | --- | --- | --- | --- | --- | --- | --- | --- | --- | --- | --- | --- | --- | --- | --- | --- | --- | --- |
| CCC1OC(=O)CC(O)C(C)C(OC2OC(C)C(O)C(N(C)C)C2O)C(CCN2CCCC2)CC(C)C(=O)C=CC(C)=CC1COC1OC(C)C(O)C(OC)C1OC (centres unmarked) [Compound D1, 20-DH-DO-20-(pyrrolidin-1-yl)desmycosin] | 16 (≈ 19.3 µM) | 0.5 (≈ 0.605 µM) | 2 (≈ 2.42 µM) | > 128 | 1 (≈ 1.21 µM) | 1 (≈ 1.21 µM) | 2 (≈ 2.42 µM) | 16 (≈ 19.3 µM) | > 128 | 16 (≈ 19.3 µM) | 2 (≈ 2.42 µM) | 9.5 | 7.9 | 0/10 | 9/10 | 16 (≈ 19.3 µM) | 6.25 (≈ 7.56 µM) | 12.5 (≈ 15.1 µM) | 0.78 (≈ 0.943 µM) | 50 (≈ 60.5 µM) | ED50 ([8]; C203, Oral): > 50 mg/kg; ED50 ([8]; C203, sc, Subcutaneous): 1.2 mg/kg; MIC (Streptococcus sp. 19F): 6.25 µg/mL (≈ 7.56 µM); MIC [16]: 6.25 µg/mL (≈ 7.56 µM); MIC (Mycoplasma synoviae 40A): 0.39 µg/mL (≈ 0.472 µM); MIC [17]: 12.5 µg/mL (≈ 15.1 µM); MIC [18]: 6.25 µg/mL (≈ 7.56 µM); MIC (Escherichia coli TEM): 128 µg/mL (≈ 155 µM); MIC [19]: 32 µg/mL (≈ 38.7 µM); MIC (Staphyloccus aureus X1.1): 2 µg/mL (≈ 2.42 µM); MIC [20]: 2 µg/mL (≈ 2.42 µM) |
| CCC1OC(=O)CC(O)C(C)C(OC2OC(C)C(O)C(N(C)C)C2O)C(CCN2CCCCC2)CC(C)C(=O)C=CC(C)=CC1COC1OC(C)C(O)C(OC)C1OC (centres unmarked) [Compound D2, 20-DH-DO-20-(piperidin-1-yl)desmycosin] | 16 (≈ 19 µM) | 0.25 (≈ 0.297 µM) | 0.5 (≈ 0.594 µM) | > 128 | 0.5 (≈ 0.594 µM) | 0.25 (≈ 0.297 µM) | 1 (≈ 1.19 µM) | 16 (≈ 19 µM) | > 128 | 16 (≈ 19 µM) | 0.5 (≈ 0.594 µM) | 9.1 | 7.8 | 0/10 | 5/10 | 16 (≈ 19 µM) | 3.12 (≈ 3.71 µM) | 3.12 (≈ 3.71 µM) | 0.78 (≈ 0.927 µM) | > 50 | ED50 ([8]; C203, Oral): 50 mg/kg; ED50 ([8]; C203, sc, Subcutaneous): 0.9 mg/kg; MIC (Streptococcus sp. 19F): 6.25 µg/mL (≈ 7.43 µM); MIC [16]: 25 µg/mL (≈ 29.7 µM); MIC (Mycoplasma synoviae 40A): 0.78 µg/mL (≈ 0.927 µM); MIC [17]: 12.5 µg/mL (≈ 14.9 µM); MIC [18]: 6.25 µg/mL (≈ 7.43 µM); MIC (Escherichia coli TEM): 16 µg/mL (≈ 19 µM); MIC [19]: 16 µg/mL (≈ 19 µM); MIC (Staphyloccus aureus X1.1): 0.5 µg/mL (≈ 0.594 µM); MIC [20]: 1 µg/mL (≈ 1.19 µM) |
| CCC1OC(=O)CC(O)C(C)C(OC2OC(C)C(O)C(N(C)C)C2O)C(CCN2CCCCCC2)CC(C)C(=O)C=CC(C)=CC1COC1OC(C)C(O)C(OC)C1OC (centres unmarked) [Compound D5, 20-DH-DO-20-(Hexahydroazepin-1-yl)desmycosin] | 8 (≈ 9.36 µM) | 0.5 (≈ 0.585 µM) | 0.25 (≈ 0.292 µM) | 128 (≈ 150 µM) | 0.12 (≈ 0.14 µM) | 0.5 (≈ 0.585 µM) | 1 (≈ 1.17 µM) | > 128 | 4 (≈ 4.68 µM) | 16 (≈ 18.7 µM) | 0.5 (≈ 0.585 µM) | 9.6 | 7.9 | 0/10 | 2/10 | 128 (≈ 150 µM) | 1.56 (≈ 1.82 µM) | 1.56 (≈ 1.82 µM) | 1.56 (≈ 1.82 µM) | 50 (≈ 58.5 µM) | ED50 ([8]; C203, Oral): 50 mg/kg; ED50 ([8]; C203, sc, Subcutaneous): 1.3 mg/kg; MIC (Streptococcus sp. 19F): 3.12 µg/mL (≈ 3.65 µM); MIC [16]: 3.12 µg/mL (≈ 3.65 µM); MIC (Mycoplasma synoviae 40A): 0.39 µg/mL (≈ 0.456 µM); MIC [17]: 1.56 µg/mL (≈ 1.82 µM); MIC [18]: 3.12 µg/mL (≈ 3.65 µM); MIC (Escherichia coli TEM): 8 µg/mL (≈ 9.36 µM); MIC [19]: 8 µg/mL (≈ 9.36 µM); MIC (Staphyloccus aureus X1.1): 0.5 µg/mL (≈ 0.585 µM); MIC [20]: 0.5 µg/mL (≈ 0.585 µM) |
| CCC1OC(=O)CC(O)C(C)C(OC2OC(C)C(O)C(N(C)C)C2O)C(CCN2C3CCCCC3C3CCCCC32)CC(C)C(=O)C=CC(C)=CC1COC1OC(C)C(O)C(OC)C1OC (centres unmarked) [Compound D25, 20-DH-DO-20-(Dodecahydrocarbazol-9-yl) desmycosin] | 4 (≈ 4.28 µM) | 0.5 (≈ 0.535 µM) | 0.5 (≈ 0.535 µM) | 128 (≈ 137 µM) | 0.25 (≈ 0.267 µM) | 0.25 (≈ 0.267 µM) | 1 (≈ 1.07 µM) | 128 (≈ 137 µM) | 128 (≈ 137 µM) | 16 (≈ 17.1 µM) | 0.5 (≈ 0.535 µM) | 9.95 | 7.95 | 0/10 | 7/10 | 8 (≈ 8.55 µM) | 3.12 (≈ 3.34 µM) | 0.39 (≈ 0.417 µM) | 3.12 (≈ 3.34 µM) | 12.5 (≈ 13.4 µM) | MIC (Streptococcus sp. 19F): 3.12 µg/mL (≈ 3.34 µM); MIC [16]: 12.5 µg/mL (≈ 13.4 µM); MIC (Mycoplasma synoviae 40A): 0.097 µg/mL (≈ 0.104 µM); MIC [17]: 0.39 µg/mL (≈ 0.417 µM); MIC [18]: 12.5 µg/mL (≈ 13.4 µM); MIC (Escherichia coli TEM): 32 µg/mL (≈ 34.2 µM); MIC [19]: 4 µg/mL (≈ 4.28 µM); MIC (Staphyloccus aureus X1.1): 0.5 µg/mL (≈ 0.535 µM); MIC [20]: 0.5 µg/mL (≈ 0.535 µM) |
